Assay: solvent given as SMILES

O=[N+]([O-])c1ccc(CCl)cc1
Settings	solvation free energy, 298 K [kcal/mol]
in Brc1ccccc1	-5.65
in CC(C)=O	-10
in CC(C)CCO	-8.34
in CC(C)CO	-8.25
in CCC(C)O	-8.28
in CCCC(C)O	-8.24
in CCCCCO	-8.4
in CCCCO	-8.49
in CCCCOC(C)=O	-9.67
in CCCO	-8.54
in CCOCC	-9.26
in O	-5.14

FCCl
Settings	solvation free energy, 298 K [kcal/mol]
in O	-0.77

CC1=CCC2CC3C(C)CCC13C2(C)C (configuration not stated)
Settings	solvation free energy, 298 K [kcal/mol]
in O	0.78

CCOC
Settings	solvation free energy, 298 K [kcal/mol]
in O	-2.1

CC(=O)CC(=O)C(C)(C)C
Settings	solvation free energy, 298 K [kcal/mol]
in O	-5.12

CCN(CC)N=O
Settings	solvation free energy, 298 K [kcal/mol]
in CC(C)CC(C)(C)C	-5.28
in O	-5.46

CCCCOCC(C)O (configuration not stated)
Settings	solvation free energy, 298 K [kcal/mol]
in O	-5.73

CCSc1nc(NC(C)C)nc(NC(C)C)n1
Settings	solvation free energy, 298 K [kcal/mol]
in O	-9

OC1CCCC1
Settings	solvation free energy, 298 K [kcal/mol]
in C1COCCO1	-6.33
in CC(C)=O	-6.28
in O	-5.5

CCCCCCCOC(=O)c1ccccc1C(=O)OCCCCC
Settings	solvation free energy, 298 K [kcal/mol]
in O	-6.78

CCCCCCCCCC(=O)OC
Settings	solvation free energy, 298 K [kcal/mol]
in O	-1.91

C1=CCCCC1
Settings	solvation free energy, 298 K [kcal/mol]
in C1CCC2CCCCC2C1	-4.21
in C1CCC(C2CCCCC2)CC1	-4.18
in CC#N	-3.43
in CC(=O)N(C)C	-3.48
in CCC(C)=O	-4
in CCCCCCCCO	-3.86
in CCCCCl	-4.37
in CCCCN(C=O)CCCC	-3.89
in CCN1CCCC1=O	-3.79
in CCN(CC)C(C)=O	-3.85
in CCNC(C)=O	-3.67
in CCNC=O	-3.52
in CN1CCCC1=O	-3.7
in CN1CCCCC1=O	-3.75
in CN(C)C=O	-3.66
in CNC(C)=O	-3.52
in CNC=O	-3.26
in COCCO	-3.48
in CS(C)=O	-3.13
in N#Cc1ccccc1	-3.95
in NC=O	-1.87
in O	0.36
in O=CN1CCOCC1	-3.21
in OCCO	-2
in OCCOCCO	-2.63
in OCCOCCOCCO	-2.73
in c1ccc2c(c1)CCCC2	-4.28
in c1ccc(C2CCCCC2)cc1	-4.19
in c1ccccc1	-4.47

OC(F)(C(F)F)C(F)(F)F (configuration not stated)
Settings	solvation free energy, 298 K [kcal/mol]
in CO	-6.53

Clc1ccc(-c2cc(Cl)ccc2Cl)cc1
Settings	solvation free energy, 298 K [kcal/mol]
in CCCCCCCCO	-10.8

O=C(C(=O)c1ccccc1)c1ccccc1
Settings	solvation free energy, 298 K [kcal/mol]
in C1CCOC1	-12.6
in C1COCCO1	-12.5
in CC(=O)N(C)C	-12.6
in CC(C)(C)O	-10.8
in CC(C)=O	-12.5
in CC(C)CC(C)(C)C	-10.2
in CC(C)CC(C)O	-10.8
in CC(C)CCO	-10.8
in CC(C)CO	-10.8
in CC(C)O	-10.8
in CC(C)OC(C)C	-11.2
in CC(C)OCCO	-11.8
in CCC(C)(C)O	-11.1
in CCC(C)=O	-12.5
in CCC(C)O	-10.9
in CCCC(C)O	-10.9
in CCCCC(CC)CO	-10.8
in CCCCCC	-10.3
in CCCCCCC	-10.3
in CCCCCCCC	-10.3
in CCCCCCCCC=CCCCCCCCC(=O)OCC(COC(=O)CCCCCCCC=CCCCCCCCC)OC(=O)CCCCCCCC=CCCCCCCCC	-11.2
in CCCCCCCCCC	-10.3
in CCCCCCCCCCO	-10.9
in CCCCCCCCO	-10.8
in CCCCCCCO	-10.9
in CCCCCCO	-10.9
in CCCCCO	-11
in CCCCCl	-12.1
in CCCCO	-11
in CCCCOC(C)=O	-12.2
in CCCCOCCO	-11.8
in CCCO	-11.1
in CCCOCCO	-11.8
in CCO	-11.1
in CCOC(C)=O	-12.3
in CCOCC	-11.8
in CCOCCO	-11.9
in CO	-11.2
in COC(C)(C)C	-11.8
in COC(C)=O	-12.4
in COC(C)CCO	-11.8
in ClC(Cl)(Cl)Cl	-12
in ClCCCl	-12.7
in Clc1ccccc1	-12.4
in Fc1ccccc1	-12.4
in O	-6.64
in O=C1CCCCC1	-12.6

Cn1c(=O)c2c(ncn2C)n(C)c1=O
Settings	solvation free energy, 298 K [kcal/mol]
in O	-12.6

CCCCC(=O)CCCC
Settings	solvation free energy, 298 K [kcal/mol]
in O	-2.64

CC[N+](=O)[O-]
Settings	solvation free energy, 298 K [kcal/mol]
in C=CCCCCCCCCCCCCCC	-3.33
in CCC(C)=O	-5.25
in CCCC(C)C	-4.09
in CCCCCCC	-3.34
in CCCCCCCC	-3.37
in CCCCCCCCCCCCCCCC	-3.17
in CCCCCCCCO	-3.93
in COC(C)=O	-5.46
in O	-3.72
in [2H]O[2H]	-3.75

CC(C)=CC(C)(C)C
Settings	solvation free energy, 298 K [kcal/mol]
in CCC(C)=O	-4.39
in O	1.84
